Consider 15 molecules from patent US10858365B2, “Triazolo-pyrimidine compounds and uses thereof” (Dizal (Jiangsu) Pharmaceutical Co., Ltd., priority 2018, dated 2020).

The target of experiment [1] is T1, hA2a (Homo sapiens (Human), UniProt P29274). In words: Radioligand binding to hA2a membrane ([3H]-CGS21680). To be noted: [3H]-CGS21680, 90 min at 25° C., read-out: Binding Affinity (IC50 nM) hA2a. As for the experimental part: (§1) Binding affinity and specificities of the compounds against different subtype of human adenosine receptors (hA1, hA2A, hA2B and hA3) were characterized with cell membrane chromatography binding analysis.
The compounds at different concentrations were incubate with hA2a membrane (from PerkinElmer) and [^3H]-CGS21680 for 90 min at 25° C., meanwhile 100 μL 0.5% PEI solution was added into […]-96 GF/B filter plate for 60 min at 4° C., then […]-96 GF/B filter plate was washed twice with 50 ml wash buffer, the membrane mix was transferred into […]-96 GF/B filter plate, and the filter plate was washed 4 times before incubated at 55° C. for 10 min. At last, […] ULTIMA GOLD was added into each well, and CPM was read by TopCount.
(§2) The empty boxes in the tables below indicate data not available.

Experiment [2] deals with T2, hA1 (Homo sapiens (Human), UniProt P30542). Nature of the experiment: Radioligand binding to hA1 membrane ([3H]-DPCPX). To be noted: 50 min at 25° C., read-out: Binding Affinity (IC50 nM) hA1. As for the experimental part: as §1
The compounds at different concentrations were incubate with hA1 membrane (from PerkinElmer) and [^3H]-8-Cyclopentyl-1,3-dipropylxanthine (DPCPX) for 50 min at 25° C., meanwhile 100 μL 0.5% PEI solution was added into […]-96 GF/B filter plate for 60 min at 4° C., then […]-96 GF/B filter plate was washed twice with 50 ml wash buffer, the membrane mix was transferred into […]-96 GF/B filter plate, and the filter plate was washed 4 times before incubated at 55° C. for 10 min. At last, […] ULTIMA GOLD was added into each well, and CPM was read by TopCount.
as §2

For experiment [3], the target named is T1, hA2a. Nature of the experiment: cAMP inhibition assay in hA2a/CHO cells. It counts as cell-based. To be noted: adenosine stimulation, read-out: cAMP & FLIPR IC50 (nM) hA2a. Summed up: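 CHO cells expressing human A2a, human A2b or mouse A2a, 5×10^3 cells/well, pre-incubated with compound 30 min at 37 °C, then stimulated with […] adenosine 30 min at 37 °C. cAMP read after 60 min room-temperature incubation with detection reagent.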

For a further experiment, the target named is hA2b (Homo sapiens (Human), UniProt P29275). In words: cAMP inhibition assay in hA2b/CHO cells. Conditions: adenosine stimulation, read-out: cAMP & FLIPR IC50 (nM) hA2b. It counts as cell-based. As for the experimental part: (§3) hA2a/CHO, hA2b/CHO and mA2a/CHO (Genscript) were plated at 5×10^3 cells/well into 384-well polystyrene plates at the day of experiment. Compounds were pre-incubated with cells for 30 min at 37° C., 5% CO2. Then […] adenosine was added to the cells and incubated for 30 min at 37° C., 5% CO2. Detection reagent (CISBIO) was added and the plates were incubated for 60 min at room temperature. The signal was captured by Envision.

The next experiment has as its target mA2a (Mus musculus (Mouse), UniProt Q60613). In words: cAMP inhibition assay in mA2a/CHO cells. Type of experiment: cell-based. Conditions: adenosine stimulation, read-out: cAMP & FLIPR IC50 (nM) mA2a. As to the method:
as §3

In experiment [4] the target is T2, hA1. Nature of the experiment: FLIPR inhibition assay in hADORA1/CHO (hA1 expressing) cells. Type of experiment: cell-based. To be noted: hADORA1/CHO cells, FLIPR calcium, adenosine stimulation; read-out: cAMP & FLIPR IC50 (nM) hA1. In short, it runs like this:
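CHO cells expressing human A1 were plated at 1×10^4 cells/well the day before, then loaded with FLIPR Calcium 5 dye for 60 min at 37 °C, 5% CO2. Compounds were added at several concentrations for 400 s before stimulation with […] adenosine. The calcium signal was recorded by FLIPR.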

Chain of hA2b (P29275 whole entry): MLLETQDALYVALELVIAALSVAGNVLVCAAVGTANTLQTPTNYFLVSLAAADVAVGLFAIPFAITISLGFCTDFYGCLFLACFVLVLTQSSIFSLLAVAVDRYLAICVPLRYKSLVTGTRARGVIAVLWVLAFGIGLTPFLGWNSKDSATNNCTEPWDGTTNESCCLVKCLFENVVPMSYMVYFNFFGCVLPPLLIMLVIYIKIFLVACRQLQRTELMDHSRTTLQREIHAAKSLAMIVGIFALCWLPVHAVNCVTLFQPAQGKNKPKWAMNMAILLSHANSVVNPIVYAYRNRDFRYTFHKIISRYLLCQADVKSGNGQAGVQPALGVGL
T1 sequence (P29274 whole entry): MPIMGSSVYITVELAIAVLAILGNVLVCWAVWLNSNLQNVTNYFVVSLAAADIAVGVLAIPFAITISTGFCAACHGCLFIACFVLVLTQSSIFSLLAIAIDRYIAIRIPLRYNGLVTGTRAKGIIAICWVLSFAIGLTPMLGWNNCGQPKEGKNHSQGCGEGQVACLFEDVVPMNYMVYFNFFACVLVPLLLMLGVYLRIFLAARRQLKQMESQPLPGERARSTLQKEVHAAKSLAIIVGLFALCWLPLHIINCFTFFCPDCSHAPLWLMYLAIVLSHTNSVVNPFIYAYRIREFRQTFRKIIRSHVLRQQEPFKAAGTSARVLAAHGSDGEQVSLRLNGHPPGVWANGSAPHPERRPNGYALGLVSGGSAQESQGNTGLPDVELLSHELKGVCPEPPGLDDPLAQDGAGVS
T2 sequence (P30542 whole entry): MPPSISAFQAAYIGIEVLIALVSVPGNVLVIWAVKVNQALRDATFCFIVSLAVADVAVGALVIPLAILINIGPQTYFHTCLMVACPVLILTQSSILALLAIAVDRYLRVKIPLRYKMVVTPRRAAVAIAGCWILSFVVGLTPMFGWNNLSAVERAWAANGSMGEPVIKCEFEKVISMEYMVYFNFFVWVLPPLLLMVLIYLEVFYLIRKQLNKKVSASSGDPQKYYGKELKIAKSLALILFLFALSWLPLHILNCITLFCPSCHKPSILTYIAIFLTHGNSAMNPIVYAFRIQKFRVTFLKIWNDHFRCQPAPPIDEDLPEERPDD
Chain of mA2a (Q60613 whole entry): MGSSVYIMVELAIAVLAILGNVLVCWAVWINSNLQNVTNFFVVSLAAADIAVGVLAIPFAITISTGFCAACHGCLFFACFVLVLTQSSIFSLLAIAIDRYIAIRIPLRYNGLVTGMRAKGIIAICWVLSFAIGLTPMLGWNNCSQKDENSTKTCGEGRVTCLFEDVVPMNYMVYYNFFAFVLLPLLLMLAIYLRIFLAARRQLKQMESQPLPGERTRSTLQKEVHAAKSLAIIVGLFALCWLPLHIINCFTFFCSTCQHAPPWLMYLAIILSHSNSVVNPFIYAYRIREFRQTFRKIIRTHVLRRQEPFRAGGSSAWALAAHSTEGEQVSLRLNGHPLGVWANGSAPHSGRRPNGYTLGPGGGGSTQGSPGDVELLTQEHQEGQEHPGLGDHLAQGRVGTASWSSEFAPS

Usually IC50 stands for the midpoint of a concentration-inhibition curve. For `Cn1cc(-c2c(-c3ncco3)nc(N)n3nc(Cc4c(F)cccc4F)nc23)ccc1=O` [Example 22, 5-(5-amino-2-(2,6-difluorobenzyl)-7-(oxazol-2-yl)-[1,2,4]triazolo[1,5-c]pyrimidin-8-yl)-1-methylpyridin-2(1H)-one], the IC50 at hA2a [1] is 12 nM; at hA1 [2], 6.8 nM; on hA2a [3], 8.2 nM; on hA2b it was 168 nM; at mA2a, 12 nM; on hA1 [4], 25 nM.
In the case of `Nc1nc(-c2ncco2)c(-c2ccc3nccn3c2)c2nc(Cc3ncccc3F)nn12` [Example 31, 2-((3-fluoropyridin-2-yl)methyl)-8-(imidazo[1,2-a]pyridin-6-yl)-7-(oxazol-2-yl)-[1,2,4]triazolo[1,5-c]pyrimidin-5-amine], the IC50 turned out to be 3 nM at hA2a [1]; 137 nM at hA1 [2]; 14 nM on hA2a [3]; 80 nM at hA2b; 51 nM on mA2a; 188 nM on hA1 [4].
With `Cn1cc(-c2c(-c3cccc(Cl)c3)nc(N)n3nc(Cc4ncccc4F)nc23)ccc1=O` [Example 70, 5-(5-amino-7-(3-chlorophenyl)-2-((3-fluoropyridin-2-yl)methyl)-[1,2,4]triazolo[1,5-c]pyrimidin-8-yl)-l-methylpyridin-2(lH)-one], the concentration for half-maximal inhibition (IC50) on hA2a [1] amounted to 4.1 nM; on hA1 [2], 0.8 nM; on hA2a [3], 5.5 nM; on hA2b it was 68 nM; at mA2a it was 13 nM; on hA1 [4] it was 14 nM.
Consider `Nc1nc(-n2nccn2)c(-c2ccc3nccn3c2)c2nc(Cc3ncccc3F)nn12` [Example 94, 2-[(3-fluoropyridin-2-yl)methyl]-8-[imidazo[1,2-a]pyridin-6-yl]-7-(2H-1,2,3-triazol-2-yl)-[1,2,4]triazolo[1,5-c]pyrimidin-5-amine], for which the IC50 is 3.5 nM at hA2a [1]; 52 nM on hA1 [2]; 7.7 nM on hA2a [3]; 94 nM at hA2b; 20 nM on mA2a; 41 nM at hA1 [4].
Consider `Cn1cc(-c2c(-c3ccc(C(F)F)cc3)nc(N)n3nc(Cc4ncccc4F)nc23)ccc1=O` [Example 41, 5-(5-amino-7-(4-(difluoromethyl)phenyl)-2-((3-fluoropyridin-2-yl)methyl)-[1,2,4]triazolo[1,5-c]pyrimidin-8-yl)-1-methylpyridin-2(1H)-one], for which the IC50 at hA2a [1] came to 3.4 nM; on hA1 [2] it was 2.2 nM; on hA2a [3], 70 nM; on hA2b it was 259 nM; on mA2a it was 189 nM; at hA1 [4] it was 17 nM.
Take `Nc1cccc(Cc2nc3c(-c4ccc5nccn5c4)c(-c4ccc(F)cc4)nc(N)n3n2)n1` [Example 37, 2-((6-aminopyridin-2-yl)methyl)-7-(4-fluorophenyl)-8-(imidazo[1,2-a]pyridin-6-yl)-[1,2,4]triazolo[1,5-c]pyrimidin-5-amine]: the IC50 was 6.3 nM at hA2a [1]; 4 nM on hA1 [2]; 1.8 nM on hA2a [3]; 12 nM on hA2b; 7.3 nM at mA2a; 12 nM on hA1 [4].
As to `COc1cccc(-c2nc(N)n3nc(Cc4ncccc4F)nc3c2-c2ccc(=O)n(C)c2)c1` [Example 77, 5-(5-amino-2-((3-fluoropyridin-2-yl)methyl)-7-(3-methoxyphenyl)-[1,2,4]triazolo[1,5-c]pyrimidin-8-yl)-1-methylpyridin-2(1H)-one], the IC50 came out at 3.6 nM on hA2a [1]; 1.4 nM at hA1 [2]; 6.7 nM on hA2a [3]; 51 nM on hA2b; 17 nM on mA2a; 13 nM at hA1 [4].
On to `Cn1cc(-c2c(-n3nccn3)nc(N)n3nc(Cc4c(F)cccc4F)nc23)ccc1=O` [Example 25, 5-[5-amino-2-[(2,6-difluorophenyl)methyl]-7-(2H-1,2,3-triazol-2-yl)-[1,2,4]triazolo[1,5-c]pyrimidin-8-yl]-1-methyl-1,2-dihydropyridin-2-one], for which the IC50 is 1.4 nM on hA2a [1]; 7.9 nM at hA1 [2]; 20 nM at hA2a [3]; 582 nM on hA2b; 30 nM at mA2a; 21 nM at hA1 [4].
For the molecule `COc1ccc(-c2nc(N)n3nc(Cc4ncccc4F)nc3c2-c2ccc(=O)n(C)c2)cc1` [Example 61, 5-(5-amino-2-((3-fluoropyridin-2-yl)methyl)-7-(4-methoxyphenyl)-[1,2,4]triazolo[1,5-c]pyrimidin-8-yl)-1-methylpyridin-2(1H)-one], the IC50 on hA2a [1] worked out at 4.2 nM; at hA1 [2], 1.7 nM; at hA2a [3] it was 28 nM; at hA2b it was 122 nM; at mA2a it was 42 nM; at hA1 [4], 25 nM.
With `Nc1nc(-c2ccc(F)cc2)c(-c2ccc3nccn3c2)c2nc(Cc3ncccc3F)nn12` [Example 32, 7-(4-fluorophenyl)-2-((3-fluoropyridin-2-yl)methyl)-8-(imidazo[1,2-a]pyridin-6-yl)-[1,2,4]triazolo [1,5-c]pyrimidin-5-amine], the IC50 on hA2a [1] is 5.5 nM; on hA1 [2] it was 3.4 nM; at hA2a [3] it was 0.9 nM; at hA2b it was 19 nM; at mA2a, 5.4 nM; on hA1 [4] it was 28 nM.
Regarding `Cc1c(-c2c(-c3ccc(F)cc3)nc(N)n3nc(Cc4ncccc4F)nc23)ccc(=O)n1C` [Example 66, 5-(5-amino-7-(4-fluorophenyl)-2-((3-fluoropyridin-2-yl)methyl)-[1,2,4]triazolo[1,5-c]pyrimidin-8-yl)-1,6-dimethylpyridin-2(1H)-one], the IC50 came to 7.2 nM on hA2a [1]; 46 nM at hA1 [2]; 31 nM at hA2a [3]; 109 nM at hA2b; 346 nM on mA2a; 69 nM on hA1 [4].
As to `Cn1cc(-c2c(-c3ccc(F)c(F)c3)nc(N)n3nc(Cc4ncccc4F)nc23)ccc1=O` [Example 39, 5-[5-amino-7-(3,4-difluorophenyl)-2-[(3-fluoropyridin-2-yl)methyl]-[1,2,4]triazolo[1,5-c]pyrimidin-8-yl]-1-methyl-1,2-dihydropyridin-2-one], the IC50 came out at 18 nM on hA2a [3], 235 nM on hA2b, 39 nM on mA2a and 15 nM on hA1 [4].
For `Cn1cc(-c2c(-n3cccn3)nc(N)n3nc(Cc4ncccc4F)nc23)ccc1=O` [Example 63, 5-[5-amino-2-[(3-fluoropyridin-2-yl)methyl]-7-(1H-pyrazol-1-yl)-[1,2,4]triazolo[1,5-c]pyrimidin-8-yl]-1-methyl-1,2-dihydropyridin-2-one], the IC50 was 122 nM at hA2a [3], 1560 nM at hA2b, 125 nM on mA2a and 250 nM at hA1 [4].
For `COCCc1nc2c(-c3ccc4ncc(C)n4c3)c(-c3ccc(F)cc3)nc(N)n2n1` [Example 114, 7-(4-fluorophenyl)-2-(2-methoxyethyl)-8-(3-methylimidazo[1,2-a]pyridin-6-yl)-[1,2,4]triazolo[1,5-c]pyrimidin-5-amine] the same measures were 0.2 nM, 40.9 nM, 0.4 nM and 5.7 nM.
For `Cn1cc(-c2c(-c3ccc(F)cc3)nc(N)n3nc(Cc4cccc(N)n4)nc23)ccc1=O` [Example 35, 5-(5-amino-2-((6-aminopyridin-2-yl)methyl)-7-(4-fluorophenyl)-[1,2,4]triazolo[1,5-c]pyrimidin-8-yl)-1-methylpyridin-2(1H)-one] the same measures were 27 nM, 173 nM, 23 nM and 35 nM.
